Here are results for 1 substance from patent US11298346B2, “Methods for treatment of fibrotic diseases” (Beta Cat Pharmaceuticals, Inc., priority 2017, dated 2022).

In data set [1] the test system is bleomycin-induced pulmonary fibrosis. The data set is described as follows: Bleomycin-induced pulmonary fibrosis mouse model, intranasal Tegavivint. The format is in vivo, C57BL/6 wild-type mice. The following applies: 5 mg/kg biw intranasal. As to the method: In another pilot study, Tegavivint at 5 mg/kg was administered biw (twice a week) via intranasal delivery to C57BL/6 wild-type mice. Bleomycin was administered to the mice intratracheally on day 0 to induce pulmonary fibrosis, and Tegavivint or the vehicle (5% dextrose in water) was administered on days 6, 10, 14, 18 and 21. The purpose of this experiment was to evaluate the effect of topically-administered Tegavivint on bleomycin-induced pulmonary fibrosis in vivo.

Data set [2] deals with syngeneic primary palmar fascia fibroblasts derived from visibly non-fibrotic palmar fascia (PF249 cells). The data set is described as follows: Alamar Blue proliferation/viability assay, PF249 cells. The conditions noted are these: for proliferation/viability: PF249 cells, 48 and 72 hrs relative to 24 hrs. The format is cell-based, human. As to the method:
Tegavivint (BC-2059) powder was reconstituted it in 100% dimethyl sulfoxide (DMSO) to a 10_mM stock solution. The stock was diluted to 100 nM in serum-free media (α minimal essential medium, αMEM), and further diluted to 100 pM in serum-free αMEM immediately before the analyses were performed. Serial dilutions from 100 pM down to 0.78 pM were assessed in various assays. 0.001% DMSO in αMEM was used as the vehicle control, and αMEM alone was used as an untreated control, in a subset of analyses.
Proliferation/viability analyses were performed in triplicate on primary palmar fascia fibroblasts derived from the fibrotic palmar fascia (DD cells) of 2 patients with Dupuytren's disease (DD249, DD77) and syngeneic primary palmar fascia fibroblasts derived from visibly non-fibrotic palmar fascia (PF cells) from these patients (PF249, PF77). Cells were cultured on type-1 collagen coated 96 well trays for these analyses to better replicate substrate interactions in vivo. Two independent assays were used for these analyses: Alamar Blue assays for analyses up to 72 hrs in cells derive from 1 patient, and Water Soluble Tetrazolium-(WST-1) assays for analyses up to 24 hrs in cells derived from the other patients. Significant effects of treatment on proliferation over time were detected by ANOVA repeated measures.

Where [3] appears, read: Topical Tegavivint alone (no bleomycin).

With Tegavivint, the pulmonary compliance entry in data set [1] (Tegavivint after bleomycin, compared to bleomycin only) was “showed a trend towards increased compliance”; in data set [1] (setting [3]), “caused an increase in compliance”. Besides, the soluble collagen content entry in data set [1] (Tegavivint after bleomycin, compared with bleomycin-only) is on record as “significantly decreased the collagen level”; in data set [1] (setting [3]), “showed a slight increase in collagen”. In addition, the proliferation/viability result in data set [2] (25 pM) and in data set [2] (50 pM) was “proliferated to significantly greater cell numbers” in each case. The substance further showed a cytotoxic concentrations in data set [2] (syngeneic fibroblasts from visibly unaffected palmar fascia, both proliferation/viability assays and visual inspection) of over 100 pM.
